Laboratory results: patent US11905251B1, “1-cyclopropyl-6-fluoro-7-(4-(2-hydroxy-3-(naphthalen-2-yloxy)propylpiperazin-1-yl)-4-oxo-1,4-dihydroquinoline-3-carboxylic acid as an eco-friendly insecticidal agent against Spodoptera littoralis (boisd.)” (priority 2023, dated 2024)
Converted amounts (≈) assume the structure as drawn.

System: Spodoptera littoralis (Boisd.) 2nd and 4th instar larvae
Assay: Insecticidal bioassay screening (castor leaf dip, larval mortality)
Assay type: in vivo
Conditions: for Toxic ratio: fenoxycarb's LC50 / compound's LC50 × 100
Method: Five concentrations (200, 100, 50, 25, 12.5 ppm) were designed for this synthetic compound and the reference fenoxycarb compound as the dynamic ingredients based on ppm via diluting the commercial formulation.
In this experiment, castor leaves are immersed in each of the previously prepared concentrations of the components for 10 seconds and then left to dry for 60 minutes. Larvae of the second and fourth instars of each checked strain are prepared with treated leaves in gauze-covered glass containers for 72 hrs. An untreated control is made in which leaves are dipped in triton x-100 and distilled water only. Then the preserved leaves were removed & fresh, untreated leaves were provided for 72 hours. Three replicates (10 larvae each) were checked for each concentration. Daily inspection was carried out for all treatments and mortality percentages were recorded 3 days (72 hours) after treatment. The average mortality percentage was corrected employing Abbott's formula. The corrected mortality rate for each of the previously synthesized compounds is statistically calculated according to Finney (1970). Through this rate, the corresponding concentration test lines (LDP lines) are assessed. Fifty and ninety percent mortality are determined, and the regression values for the checked products were previously evaluated.

[1] = Spodoptera littoralis, foliar, 72 h, 2nd instar larvae of S. littoralis, after 72 h of treatment
[2] = Spodoptera littoralis, foliar, 72 h, 4th instar larvae of S. littoralis, after 72 h of treatment
[3] = Spodoptera littoralis, foliar, against Spodoptera littoralis under laboratory conditions (instar not given)

Structure (SMILES) | LC50 (in vivo) | Toxic ratio (2nd instar larvae, 72 h) | Toxic ratio (4th instar larvae, 72 h) | LC50 [1] | LC50 [2] | LC50 [3] | activity against Spodoptera littoralis (in words) (compared with reference insecticide fenoxycarb)
O=C(O)c1cn(C2CC2)c2cc(N3CCN(CC(O)COc4ccc5ccccc5c4)CC3)c(F)cc2c1=O (stereo not shown) [listing 1 of 2 here] | about 103.01 ppm |  |  |  |  |  | 
O=C(O)c1cn(C2CC2)c2cc(N3CCN(CC(O)COc4ccc5ccccc5c4)CC3)c(F)cc2c1=O (stereo not shown) [listing 2 of 2 here] | about 44.08 ppm |  |  |  |  |  | 
O=C(O)c1cn(C2CC2)c2cc(N3CCN(CC(O)COc4ccc5ccccc5c4)CC3)c(F)cc2c1=O (stereo not shown) [Compound 7] |  | 6.1 | 41.9 | 44.1 µg/mL (≈ 82.9 µM) | 103 µg/mL (≈ 194 µM) | 44.1 µg/mL (≈ 82.9 µM) | active against Spodoptera littoralis
CCOC(=O)NCCOc1ccc(Oc2ccccc2)cc1 [Fenoxycarb, reference compound] |  | 100 | 1 | 2.73 µg/mL (≈ 9.06 µM) | 43.2 µg/mL (≈ 143 µM) | 2.73 µg/mL (≈ 9.06 µM) | 
